Laboratory results from patent publication US8409560B2, “Solid dispersion formulations and methods of use thereof” (Zalicus Pharmaceuticals Ltd., priority 2011, dated 2013).

Key:
Assay type in all cases: physicochemical
[1] = pKa of compound 1 (previously determined)
Text: Compound 1 has the following previously determined characteristics: […]

[2] = Modulated differential scanning calorimetry (MDSC), glass transition temperature Tg; settings: compound 1 alone
Method: FIG. 6 is a graph showing modulated differential scanning calorimetry measurements at ambient relative humidity for solid dispersion formulations having 20% (w/w) loading of compound 1. Glass transition temperature Tg is shown for formulations of carboxymethylethyl cellulose (CMEC), hydroxypropylmethyl cellulose acetate succinate M grade (HPMCAS-M), cellulose acetate phthalate (CAP), and polyvinyl acetate phthalate (PVAP).
Various solid dispersion formulations were tested using modulated differential scanning calorimetry (MDSC). MDSC measurements provide glass transition temperature Tg values, which can be used to understand the molecular mobility of a drug within the dispersion. […] Data for Eudragit® L 100 are not shown, but Tg is likely greater than 150° C. due to polymer degradation above this temperature. All recorded Tg values were at least twice as high as compound 1 alone (Tg=41.6° C.). Lower Tg values could indicate potential stability issues over long periods of time or at an increased temperature or pressure. Table 3 provides Tg values for CAP (formulation 1), HPMCAS-M (formulation 2), and PVAP.

[3] = Dissolution of solid dispersions, gastric-to-FaSSIF media transition at 13 minutes; settings: unformulated; pH 1.0-to-6.5
Method: FIGS. 1A-1H are graphs showing the dissolution rate in gastric media for solid dispersion formulations having 20% (w/w) loading of compound 1 and a gastric-to-FaSSIF (pH 1.0-to-6.5) media transition at 13 minutes. […]
Various formulations were tested to reduce precipitation. As shown in FIGS. 1A-1H, solubility was measured for the following formulations: carboxymethylethyl cellulose (CMEC, FIG. 1A), cellulose acetate phthalate (CAP, FIG. 1B), hydroxypropylmethyl cellulose acetate succinate M grade (HPMCAS-M, FIG. 1C), polyvinyl acetate phthalate (PVAP, FIG. 1D), methacrylic acid-methyl methacrylate copolymer (Eudragit® L 100, FIG. 1E), polyethylene glycol-polyvinylcaprolactam-polyvinylacetate copolymer (Soluplus®, FIG. 1F), hydroxypropylmethyl cellulose phthalate (HPMCP-H55, FIG. 1G), and polyvinylpyrrolidone vinylacetate copolymer (PVP-VA, FIG. 1H). […]
Further tests were conducted with different % loading of compound 1. Dissolution rates were measured for formulations have 35% (w/w) loading (FIGS. 2A-2C) and 50% (w/w) loading (FIGS. 3A-3D). CAP, HPMCAS-M, Eudragit® L 100, and PVAP were further analyzed for these tests. […]

pKa [1]: 5.4
Tg [2]: 41.6 °C
behaviour in FaSSIF media following exposure to gastric media [3]: rapidly precipitated
Compound: O=C(CC(c1ccccc1)c1ccccc1)N1CCN(C(c2ccccc2)c2ccccc2)CC1 [Compound 1, 1-(4-benzhydrylpiperazin-1-yl)-3,3-diphenylpropan-1-one]
